The source of these data is paper PMC7321065, “Discovery of New Schiff Bases Tethered Pyrazole Moiety: Design, Synthesis, Biological Evaluation, and Molecular Docking Study as Dual Targeting DHFR/DNA Gyrase Inhibitors with Immunomodulatory Activity” (Molecules, 2020).

One data set concerns Candida albicans. The data set is described as follows: Inhibition zone, agar plate diffusion. Format: cell-based. As to conditions: Ca, mm ± standard deviation, sample at 0.5 mg/mL, read-out: Inhibition zone (IZ). An outline of the steps:
(§1)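 Compounds in DMSO, with DMSO as negative control, were tested at 0.5 mg/mL in agar wells cut 10 mm wide.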

For the next data set, the system named is Fusarium oxysporum. Put plainly: Inhibition zone, agar plate diffusion. The data set is classed as cell-based. The note with it: Fo, mm ± standard deviation, sample at 0.5 mg/mL, read-out: Inhibition zone (IZ). The procedure, abridged:
as §1

In a further data set the test system is Salmonella typhi. The data set is described as follows: Inhibition zone, agar plate diffusion. The data set is classed as cell-based. As to conditions: Salmonella enterica, St, mm ± standard deviation, sample at 0.5 mg/mL, read-out: Inhibition zone (IZ). An outline of the steps:
as §1

A further data set deals with Staphylococcus aureus. Put plainly: Inhibition zone, agar plate diffusion. Format: cell-based. The note with it: Sa, mm ± standard deviation, sample at 0.5 mg/mL, read-out: Inhibition zone (IZ). An outline of the steps: as §1
The test system of another data set is Escherichia coli. Put plainly: Inhibition zone, agar plate diffusion. The note with it: Ec, mm ± standard deviation, sample at 0.5 mg/mL, read-out: Inhibition zone (IZ). The data set is classed as cell-based. The procedure, abridged:
as §1

The subject of another data set is Bacillus subtilis. The data set is described as follows: Inhibition zone, agar plate diffusion. As to conditions: Bs, mm ± standard deviation, sample at 0.5 mg/mL, read-out: Inhibition zone (IZ). The data set is classed as cell-based. An outline of the steps:
as §1

The subject of another data set is Enterococcus faecalis. The data set is described as follows: Inhibition zone, agar plate diffusion. The data set is classed as cell-based. The note with it: Ef, mm ± standard deviation, sample at 0.5 mg/mL, read-out: Inhibition zone (IZ). The procedure, abridged: as §1
The test system of another data set is Pseudomonas aeruginosa. Put plainly: Inhibition zone, agar plate diffusion. Format: cell-based. As to conditions: Pa, mm ± standard deviation, sample at 0.5 mg/mL, read-out: Inhibition zone (IZ). An outline of the steps:
as §1

With `COc1ccc(Nc2n[nH]c(N=Cc3cc(OC)c(OC)c(OC)c3)c2C(=O)Nc2ccc(C)cc2)cc1` [9c, 3-(p-Methoxyphenylamino)-N-p-tolyl-5-(3,4,5-trimethoxybenzylideneamino)-1H-pyrazole-4-carboxamide], the melting point was in the range of 234 to 236 °C. Moreover, the zone of inhibition at 500 µg/mL in the data set on Candida albicans is 21 ± 0.5 mm. Further, the zone of inhibition at 500 µg/mL with Fusarium oxysporum was 19 ± 0.28 mm. For the same compound, the zone of inhibition at 500 µg/mL in the data set on Salmonella typhi turned out to be 23 ± 0.33 mm. Also, the zone of inhibition at 500 µg/mL in the data set on Staphylococcus aureus was found to be 22 ± 0.34 mm. The zone of inhibition at 500 µg/mL in the data set on Escherichia coli is 23 ± 0.44 mm. Further, the zone of inhibition at 500 µg/mL with Bacillus subtilis came out at 22 ± 0.18 mm. Further, the zone of inhibition at 500 µg/mL in the data set with Enterococcus faecalis turned out to be 21 ± 0.72 mm. In the data set with Pseudomonas aeruginosa, the zone of inhibition at 500 µg/mL was under 8 mm.

In turn, `COc1ccc(Nc2n[nH]c(N=Cc3cc(OC)c(OC)c(OC)c3)c2C(=O)Nc2ccc(Cl)cc2)cc1` [9d, N-(p-Chlorophenyl)-3-(p-methoxyphenylamino)-5-(3,4,5-trimethoxybenzylideneamino)-1H-pyrazole-4-carboxamide] had a melting point of 213 to 215 °C. Further, the zone of inhibition at 500 µg/mL with Candida albicans amounted to 18 ± 0.2 mm. In addition, the zone of inhibition at 500 µg/mL with Fusarium oxysporum is 14 ± 0.38 mm. Further, the zone of inhibition at 500 µg/mL in the data set on Salmonella typhi is 12 ± 0.61 mm. For the same compound, the zone of inhibition at 500 µg/mL in the data set with Staphylococcus aureus is 16 ± 0.54 mm. The zone of inhibition at 500 µg/mL in the data set on Escherichia coli came to 15 ± 0.96 mm. Moreover, the zone of inhibition at 500 µg/mL in the data set on Bacillus subtilis came out at 18 ± 0.12 mm. In the data set with Enterococcus faecalis, the zone of inhibition at 500 µg/mL is under 8 mm. In addition, in the data set on Pseudomonas aeruginosa, the zone of inhibition at 500 µg/mL is under 8 mm.

Turning to `COc1ccc(Nc2n[nH]c(N=Cc3cc(OC)c(OC)c(OC)c3)c2C(N)=O)cc1` [9a, 3-(p-Methoxyphenylamino)-5-(3,4,5-trimethoxybenzylideneamino)-1H-pyrazole-4-carboxamide], the melting point fell in the range of 222 to 224 °C. Also, the zone of inhibition at 500 µg/mL in the data set with Candida albicans was determined as 22 ± 0.19 mm. In addition, in the data set with Fusarium oxysporum, the zone of inhibition at 500 µg/mL came to 19 ± 0.55 mm. For the same compound, in the data set on Salmonella typhi, the zone of inhibition at 500 µg/mL was 20 ± 0.33 mm. For the same compound, the zone of inhibition at 500 µg/mL in the data set on Staphylococcus aureus turned out to be 21 ± 0.17 mm. Further, the zone of inhibition at 500 µg/mL in the data set with Escherichia coli is 22 ± 0.18 mm. Also, in the data set on Bacillus subtilis, the zone of inhibition at 500 µg/mL turned out to be 25 ± 0.21 mm. In addition, in the data set on Enterococcus faecalis, the zone of inhibition at 500 µg/mL is 19 ± 0.14 mm. For the same compound, the zone of inhibition at 500 µg/mL with Pseudomonas aeruginosa was 17 ± 0.2 mm.

As a reminder, the melting point is the temperature of the solid-liquid transition.
